22 compounds from patent US10323038B2, “Pyrazole compounds and methods of making and using same” (ABIDE THERAPEUTICS, INC., priority 2015, dated 2019) can be followed below.

Holding throughout (format): biochemical
Assay [1] deals with MAGL (Homo sapiens (Human), UniProt Q99685). Put plainly: In vitro competitive activity-based protein profiling, MAGL (human). The note with it: human proteome; for inhibition at 10 µM: read-out: MAGL % inh. 10 μM (human); for inhibition at 1 µM: read-out: MAGL % inh. 1 μM (human). As to the method:
(§1) In Vitro Competitive Activity-Based Protein Profiling.
(§2) Proteomes (mouse brain membrane fraction or cell lysates for mouse assays; human prefrontal cortex or cell membrane fractions for human assays) (50 μL, 1.0 mg/mL total protein concentration) were preincubated with varying concentrations of inhibitors at 37° C. After 30 min, FP—Rh or HT-01 (1.0 μL, 50 μM in DMSO) was added and the mixture was incubated for another 30 min at 37° C. Reactions were quenched with SDS loading buffer (15 μL-4×) and run on SDS-PAGE. Following gel imaging, serine hydrolase activity was determined by measuring fluorescent intensity of gel bands corresponding to MAGL and FAAH using ImageJ 1.43u software.

For assay [2], the target named is FAAH (Homo sapiens (Human), UniProt O00519). Briefly: In vitro competitive activity-based protein profiling, FAAH (human). The note with it: human proteome; for inhibition at 10 µM: read-out: FAAH % inh. 10 μM (human); for inhibition at 1 µM: read-out: FAAH % inh. 1 μM (human). As to the method: as §1, §2
Chain of FAAH (Homo sapiens (Human), UniProt O00519) (O00519 whole entry): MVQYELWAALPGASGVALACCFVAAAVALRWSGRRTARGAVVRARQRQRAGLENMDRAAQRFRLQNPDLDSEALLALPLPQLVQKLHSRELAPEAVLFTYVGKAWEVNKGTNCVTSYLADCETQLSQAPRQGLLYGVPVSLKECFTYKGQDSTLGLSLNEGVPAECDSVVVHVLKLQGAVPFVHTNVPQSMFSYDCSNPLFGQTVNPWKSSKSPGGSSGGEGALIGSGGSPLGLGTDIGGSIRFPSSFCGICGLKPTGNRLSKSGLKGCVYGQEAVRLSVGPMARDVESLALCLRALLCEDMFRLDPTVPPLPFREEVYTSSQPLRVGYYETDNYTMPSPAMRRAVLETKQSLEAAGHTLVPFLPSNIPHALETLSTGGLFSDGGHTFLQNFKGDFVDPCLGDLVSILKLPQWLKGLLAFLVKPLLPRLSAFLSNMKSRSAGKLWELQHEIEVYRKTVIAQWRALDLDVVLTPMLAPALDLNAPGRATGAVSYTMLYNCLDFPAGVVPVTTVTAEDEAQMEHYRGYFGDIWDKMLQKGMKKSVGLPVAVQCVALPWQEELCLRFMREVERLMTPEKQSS
Assay [3] concerns the target MAGL (Mus musculus (Mouse), UniProt O35678). Put plainly: In vitro competitive activity-based protein profiling, MAGL (mouse). Conditions: 1 μM, read-out: MAGL % inh. 1 μM (mouse). The essentials: (§3)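 Competitive ABPP; proteome 1.0 mg/mL total protein; mouse = brain membranes or cell lysates, human = prefrontal cortex or cell membranes. Inhibitor preinc 30 min, 37° C; FP-Rh/HT-01 (50 μM DMSO stock) 30 min, 37° C; SDS-PAGE, in-gel fluorescence of MAGL/FAAH bands.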

In assay [4] the target is FAAH (Mus musculus (Mouse), UniProt O08914). Put plainly: In vitro competitive activity-based protein profiling, FAAH (mouse). Conditions: 1 μM, read-out: FAAH % inh. 1 μM (mouse). The gist of the method:
as §3

Chain of MAGL (Mus musculus (Mouse), UniProt O35678) (O35678 whole entry): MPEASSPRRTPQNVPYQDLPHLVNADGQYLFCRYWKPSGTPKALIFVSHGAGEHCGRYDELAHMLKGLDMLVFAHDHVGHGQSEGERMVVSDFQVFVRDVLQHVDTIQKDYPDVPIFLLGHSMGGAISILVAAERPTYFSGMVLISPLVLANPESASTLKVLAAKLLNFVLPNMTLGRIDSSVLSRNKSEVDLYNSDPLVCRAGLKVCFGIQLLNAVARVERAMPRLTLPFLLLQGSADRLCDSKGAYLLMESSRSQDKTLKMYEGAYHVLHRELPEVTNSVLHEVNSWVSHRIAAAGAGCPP
Chain of MAGL (Homo sapiens (Human), UniProt Q99685) (Q99685 whole entry): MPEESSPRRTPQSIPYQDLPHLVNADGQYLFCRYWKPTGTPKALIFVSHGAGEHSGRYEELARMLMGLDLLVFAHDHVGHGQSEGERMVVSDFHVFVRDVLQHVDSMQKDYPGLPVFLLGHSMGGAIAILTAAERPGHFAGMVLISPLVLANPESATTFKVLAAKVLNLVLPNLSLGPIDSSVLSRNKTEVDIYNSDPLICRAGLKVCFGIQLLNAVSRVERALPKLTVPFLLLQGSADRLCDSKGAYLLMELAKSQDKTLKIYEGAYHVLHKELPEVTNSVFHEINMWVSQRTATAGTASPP
Chain of FAAH (Mus musculus (Mouse), UniProt O08914) (O08914 whole entry): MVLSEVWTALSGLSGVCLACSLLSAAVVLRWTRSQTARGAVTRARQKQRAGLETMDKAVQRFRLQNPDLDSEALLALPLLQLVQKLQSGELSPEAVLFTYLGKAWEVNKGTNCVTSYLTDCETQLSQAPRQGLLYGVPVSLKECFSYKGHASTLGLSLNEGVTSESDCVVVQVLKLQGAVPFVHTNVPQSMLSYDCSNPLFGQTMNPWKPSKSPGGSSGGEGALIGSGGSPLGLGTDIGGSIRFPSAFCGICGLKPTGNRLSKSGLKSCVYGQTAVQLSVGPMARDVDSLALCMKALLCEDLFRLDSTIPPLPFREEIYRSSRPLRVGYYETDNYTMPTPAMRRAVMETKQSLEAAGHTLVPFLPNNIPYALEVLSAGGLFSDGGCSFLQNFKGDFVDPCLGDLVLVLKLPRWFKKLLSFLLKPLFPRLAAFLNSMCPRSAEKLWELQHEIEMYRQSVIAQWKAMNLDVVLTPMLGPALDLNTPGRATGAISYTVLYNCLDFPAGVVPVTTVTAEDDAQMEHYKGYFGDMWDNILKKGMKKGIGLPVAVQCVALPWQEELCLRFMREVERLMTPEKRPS

Consider `CC(=O)N(C)c1cnn(C(=O)N2CCC3(CCN(Cc4ccc(N5CCOCC5)cc4)C3)C2)c1` (stereo not shown) [Example 3, N-methyl-N-(1-(7-(4-morpholinobenzyl)-2,7-diazaspiro[4.4]nonane-2-carbonyl)-1H-pyrazol-4-yl)acetamide], for which the inhibition at 10 µM on MAGL [1] and at FAAH [2] was at least 75% in each case. Besides, the figures for the inhibition at 1 µM on MAGL [3] and on FAAH [4] were 0 to 25% and 50 to 75%, respectively.

Turning to `CC(=O)N(C)c1cnn(C(=O)N2CCC3(CCN(Cc4ccc(N5CCOCC5)cc4C)C3)C2)c1` (stereo not shown) [Example 5, N-methyl-N-(1-(7-(2-methyl-4-morpholinobenzyl)-2,7-diazaspiro[4.4]nonane-2-carbonyl)-1H-pyrazol-4-yl)acetamide], the inhibition at 10 µM at MAGL [1] and on FAAH [2] was at least 75% each time. For the same compound, the inhibition at 1 µM lay within 0 to 25% on MAGL [3] and 50 to 75% at FAAH [4].

In the case of `CC(=O)N(C)c1cnn(C(=O)N2CC3CN(Cc4ccc(N5CCOCC5)cc4)CC3C2)c1` (stereo not shown) [Example 15, N-methyl-N-(1-(5-(4-morpholinobenzyl)octahydropyrrolo[3,4-c]pyrrole-2-carbonyl)-1H-pyrazol-4-yl)acetamide], the inhibition at 10 µM at MAGL [1] and on FAAH [2] was at least 75% each time. Moreover, the inhibition at 1 µM lay in the range of 0 to 25% on MAGL [3] and 25 to 50% at FAAH [4].

Turning to `CC(=O)N(C)c1cnn(C(=O)N2CC3(CCN(Cc4ccc(N5CCOCC5)cc4)CC3)C2)c1` [Example 21, N-methyl-N-(1-(7-(4-morpholinobenzyl)-2,7-diazaspiro[3.5]nonane-2-carbonyl)-1H-pyrazol-4-yl)acetamide], the inhibition at 10 µM on MAGL [1] was 0 to 25%; on FAAH [2], at least 75%. Further, the inhibition at 1 µM on MAGL [3] is 0 to 25%; on FAAH [4], 25 to 50%.

On to `CC(=O)N(C)c1cnn(C(=O)N2CCC3(CCN(Cc4cccc(N5CCOCC5)c4)C3)C2)c1` (stereo not shown) [Example 48, N-methyl-N-(1-(7-(3-morpholinobenzyl)-2,7-diazaspiro[4.4]nonane-2-carbonyl)-1H-pyrazol-4-yl)acetamide], for which the inhibition at 10 µM on MAGL [1] and at FAAH [2] was at least 75% throughout. Further, the values for the inhibition at 1 µM at MAGL [3] and at FAAH [4] were 0 to 25% and 25 to 50%, respectively.

Regarding `CC(=O)N(C)c1cnn(C(=O)N2CCC3(CCN(Cc4ccccc4F)C3)C2)c1` (stereo not shown) [Example 52, N-(1-(7-(2-fluorobenzyl)-2,7-diazaspiro[4.4]nonane-2-carbonyl)-1H-pyrazol-4-yl)-N-methylacetamide], the inhibition at 10 µM on MAGL [1] and on FAAH [2] was at least 75% each time. Also, the inhibition at 1 µM at MAGL [3] is 0 to 25%; at FAAH [4] it was at least 75%.

Consider `CC(=O)N(C)c1cnn(C(=O)N2CCC3(CCN(Cc4ccccc4C)C3)C2)c1` (stereo not shown) [Example 54, N-methyl-N-(1-(7-(2-methylbenzyl)-2,7-diazaspiro[4.4]nonane-2-carbonyl)-1H-pyrazol-4-yl)acetamide], for which the inhibition at 10 µM at MAGL [1] and at FAAH [2] was at least 75% throughout. Moreover, the inhibition at 1 µM on MAGL [3] was 0 to 25%; at FAAH [4], at least 75%.

On to `COc1ccccc1CN1CCC2(CCN(C(=O)n3cc(N(C)C(C)=O)cn3)C2)C1` (stereo not shown) [Example 56, N-(1-(7-(2-methoxybenzyl)-2,7-diazaspiro[4.4]nonane-2-carbonyl)-1H-pyrazol-4-yl)-N-methylacetamide], for which the inhibition at 10 µM at MAGL [1] and at FAAH [2] was at least 75% throughout. For the same compound, the inhibition at 1 µM at MAGL [3] and on FAAH [4] was 0 to 25% each time.

`CC(=O)N(C)c1cnn(C(=O)N2CCC3(CCN(Cc4ccccc4N4CCCC4)C3)C2)c1` (stereo not shown) [Example 60, N-methyl-N-(1-(7-(2-(pyrrolidin-1-yl)benzyl)-2,7-diazaspiro[4.4]nonane-2-carbonyl)-1H-pyrazol-4-yl)acetamide]: the inhibition at 10 µM on MAGL [1] and at FAAH [2] was at least 75% in each case. Moreover, the inhibition at 1 µM on MAGL [3] and on FAAH [4] was 0 to 25% in each case.

For the compound `CC(=O)N(C)c1cnn(C(=O)N2CCC3(CCN(Cc4ccccc4N4CCOCC4)C3)C2)c1` (stereo not shown) [Example 62, N-methyl-N-(1-(7-(2-morpholinobenzyl)-2,7-diazaspiro[4.4]nonane-2-carbonyl)-1H-pyrazol-4-yl)acetamide], the inhibition at 10 µM at MAGL [1] was 25 to 50%; at FAAH [2], at least 75%. Also, the inhibition at 1 µM at MAGL [3] and at FAAH [4] was 0 to 25% in each case.

As for `CC(=O)N(C)c1cnn(C(=O)N2CCC3(CCN(Cc4ccc(F)cc4)C3)C2)c1` (stereo not shown) [Example 75, N-(1-(7-(4-fluorobenzyl)-2,7-diazaspiro[4.4]nonane-2-carbonyl)-1H-pyrazol-4-yl)-N-methylacetamide], the inhibition at 10 µM at MAGL [1] and at FAAH [2] was at least 75% each time. Further, the inhibition at 1 µM at MAGL [3] is 0 to 25%; on FAAH [4], 50 to 75%.

`CC(=O)N(C)c1cnn(C(=O)N2CCC3(CCN(Cc4ccc(C)cc4)C3)C2)c1` (stereo not shown) [Example 76, N-methyl-N-(1-(7-(4-methylbenzyl)-2,7-diazaspiro[4.4]nonane-2-carbonyl)-1H-pyrazol-4-yl)acetamide]: the inhibition at 10 µM at MAGL [1] and on FAAH [2] was at least 75% throughout. The inhibition at 1 µM on MAGL [3] was in the range of 0 to 25%; at FAAH [4], 50 to 75%.

In the case of `COc1ccc(CN2CCC3(CCN(C(=O)n4cc(N(C)C(C)=O)cn4)C3)C2)cc1` (stereo not shown) [Example 77, N-(1-(7-(4-methoxybenzyl)-2,7-diazaspiro[4.4]nonane-2-carbonyl)-1H-pyrazol-4-yl)-N-methylacetamide], the inhibition at 10 µM at MAGL [1] and at FAAH [2] was at least 75% throughout. For the same compound, the values for the inhibition at 1 µM at MAGL [3] and at FAAH [4] were 0 to 25% and 25 to 50%, respectively.

As for `CS(=O)(=O)Nc1cnn(C(=O)N2CCN(Cc3ccc(-c4nc5ccccc5o4)cc3C(F)(F)F)CC2)c1` [Example 304, N-(1-(4-(4-(benzo[d]oxazol-2-yl)-2-(trifluoromethyl)benzyl)piperazine-1-carbonyl)-1H-pyrazol-4-yl)methanesulfonamide], the values for the inhibition at 1 µM at MAGL [1] and at FAAH [2] were 25 to 50% and at least 75%, respectively.

With `CS(=O)(=O)Nc1cnn(C(=O)N2CCN(Cc3ccc(-c4nc5ccccc5s4)cc3C(F)(F)F)CC2)c1` [Example 305, N-(1-(4-(4-(benzo[d]thiazol-2-yl)-2-(trifluoromethyl)benzyl)piperazine-1-carbonyl)-1H-pyrazol-4-yl)methanesulfonamide], the inhibition at 1 µM at MAGL [1] and at FAAH [2] was at least 75% throughout.

With `Cc1nnc(-c2ccc(CN3CCN(C(=O)n4cc(NS(C)(=O)=O)cn4)CC3)c(C(F)(F)F)c2)o1` [Example 306, N-(1-(4-(4-(5-methyl-1,3,4-oxadiazol-2-yl)-2-(trifluoromethyl)benzyl)piperazine-1-carbonyl)-1H-pyrazol-4-yl)methanesulfonamide], the figures for the inhibition at 1 µM on MAGL [1] and at FAAH [2] were 50 to 75% and 0 to 25%, respectively.

On to `Cc1nccn1-c1ccc(CN2CCN(C(=O)n3cc(NS(C)(=O)=O)cn3)CC2)c(C(F)(F)F)c1` [Example 308, N-(1-(4-(4-(2-methyl-1H-imidazol-1-yl)-2-(trifluoromethyl)benzyl)piperazine-1-carbonyl)-1H-pyrazol-4-yl)methanesulfonamide], for which the inhibition at 1 µM was at least 75% at MAGL [1] and 0 to 25% at FAAH [2].

On to `CS(=O)(=O)Nc1cnn(C(=O)N2CCN(Cc3ccc(-c4ncccn4)cc3C(F)(F)F)CC2)c1` [Example 310], for which the inhibition at 1 µM on MAGL [1] and on FAAH [2] was at least 75% throughout.

As to `CS(=O)(=O)Nc1cnn(C(=O)N2CCN(Cc3ccc(-c4cccnn4)cc3C(F)(F)F)CC2)c1` [Example 311, N-(1-(4-(4-(pyridazin-3-yl)-2-(trifluoromethyl)benzyl)piperazine-1-carbonyl)-1H-pyrazol-4-yl)methanesulforamide], the inhibition at 1 µM on MAGL [1] is at least 75%; on FAAH [2] it was 50 to 75%.

As for `CS(=O)(=O)Nc1cnn(C(=O)N2CCN(Cc3ccc(-c4ccnnc4)cc3C(F)(F)F)CC2)c1` [Example 312, N-(1-(4-(4-(pyridazin-4-yl)-2-(trifluoromethyl)benzyl)piperazine-1-carbonyl)-1H-pyrazol-4-yl)methanesulfonamide], the figures for the inhibition at 1 µM at MAGL [1] and at FAAH [2] were at least 75% and 25 to 50%, respectively.

Consider `CC(=O)Nc1cnn(C(=O)N2CC3CN(Cc4cccc(Oc5ccc(Cl)cc5)c4)CC3C2)c1` (stereo not shown) [Example 316, N-(1-(5-(3-(4-chlorophenoxy)benzyl)octahydropyrrolo [3,4-c]pyrrole-2-carbonyl)-1H-pyrazol-4-yl)acetamide], for which the inhibition at 1 µM at MAGL [1] and at FAAH [2] was at least 75% each time.

Take `C#Cc1ccc(CN2CCN(C(=O)n3cc(NS(C)(=O)=O)cn3)CC2)cc1` [Example 318, N-(1-(4-(4-ethynylbenzyl)piperazine-1-carbonyl)-1H-pyrazol-4-yl)methanesulfonamide]: the inhibition at 1 µM is 25 to 50% at MAGL [1] and at least 75% at FAAH [2].
